Experimental data published in patent EP1889617A1, “Triphenyl modified 5-membered heterocycles and their use as anticancer and antiflammatory agents” (Freie Universität Berlin, priority 2006, dated 2008).

Legend:
MCF-7 cells = experiment: Cytotoxic effects, concentration dependent test (IC50), crystal violet staining; type: cell-based; conditions: Homo sapiens, MCF7; estrogen receptor positive MCF-7 cells; incubation of 72 h
Description: (§1) The cytotoxic assay in estrogen receptor positive MCF-7 cells has been described previously by Ruenitz, P.C. et al. (1997) J. Steroid Biochem. Mol. Biol. 63, 203-209). Fiation, staining and quantitation of the cells were carried out according to Gillies (Gillies, R.J. et al. (1986) Anal. Biochem. 159, 109-113) and Kueng (Kueng, W. et al. (1989) Anal. Biochem. 182, 16-19). Moreover the test was carried out with estrogen receptor negative MD-MB 231 cells. MCF-7 cells (MDA-MB 231 cells) from an almost confluent monolayer were harvest by trypsinization and suspended to approximately 7 x 10^3 cells/mL (1 x 10^3 cells/mL). At the beginning of the experiment, the cell suspension was transferred to 96-well microplates (100 µL/well). After cultivating them for 3 days at growing conditions the medium was removed and replaced by one containing the test compounds. Control wells (16/plate) were contained 0.1% of DMSO, which was used for the preparation of the stock solutions. The initial cell density was determined by addition of glutaric dialdehyde (1 % in PBS; 100 µL/well). After incubation for 3-7 days, the medium was removed, and glutaric dialdehyde (1 % in PBS; 100 µL/well) was added for fixation. After 15 min, the solution of the aldehyde was decanted and 180 µL PBS/well added. The plates were stored at 4°C until staining. Cells were stained by treating them for 25 min with 100 µL of an aqueous solution of crystal violet (0.02%). After decanting cells were washed several times with water to remove the adherent dye. After addition of 180 µL of ethanol (70%), plates were gently shaken for 4 h. Optical density of each well was measured in a microplate autoreader at 590 nm.
(§2) MCF-7 cells (MDA-MB 231 cells) from an almost confluent monolayer were harvested by trypsinization and suspended to approximately 10 × 10^3 cells/mL (5 x 10^3 cells/mL). After cultivating them for 3 days at growing conditions the medium was removed and replaced by one containing the test compounds (control wells 8/plate). After incubation of 72 h (48 h) the medium was removed and the test was continued as descried above.

MDA-MB 231 cells = experiment: as above; type: cell-based; conditions: Homo sapiens; estrogen receptor negative MDA-MB 231 cells; incubation of 48 h
Description: as §1, §2

estrogen receptor = target: T1, estrogen receptor (Homo sapiens, UniProt P03372); experiment: Whole Cell Assay (WCA): competitive estrogen receptor binding against [3H]17β-estradiol; conditions: test compound 10^-6 M, 1 h incubation (37°C), percentage to a solvent treated control sample
T1 construct: endogenous in cells; host or cells: MCF-7
T1 sequence (P03372 1-595): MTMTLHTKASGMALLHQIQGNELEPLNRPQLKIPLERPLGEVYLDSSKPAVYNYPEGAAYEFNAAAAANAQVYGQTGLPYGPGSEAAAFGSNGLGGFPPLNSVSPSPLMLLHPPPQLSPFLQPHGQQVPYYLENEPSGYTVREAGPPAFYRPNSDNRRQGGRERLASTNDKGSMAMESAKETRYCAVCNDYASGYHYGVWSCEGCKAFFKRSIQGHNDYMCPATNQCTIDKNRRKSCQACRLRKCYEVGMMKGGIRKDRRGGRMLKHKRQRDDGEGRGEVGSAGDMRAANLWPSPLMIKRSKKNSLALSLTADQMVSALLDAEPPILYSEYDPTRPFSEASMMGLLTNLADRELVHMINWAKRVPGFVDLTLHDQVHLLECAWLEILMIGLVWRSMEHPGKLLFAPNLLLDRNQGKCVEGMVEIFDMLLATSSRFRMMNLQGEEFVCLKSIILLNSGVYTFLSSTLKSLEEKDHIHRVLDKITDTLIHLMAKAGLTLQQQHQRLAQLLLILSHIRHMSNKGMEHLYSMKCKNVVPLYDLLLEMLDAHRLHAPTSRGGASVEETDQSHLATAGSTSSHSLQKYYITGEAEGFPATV
Description: (§3) ER binding affinity is measured in competitive binding assays compared to estradiol. Binding affinity is expressed as a relative binding affinity (RBA) in percent compared to estradiol which is assigned an affinity of 100%. Substantial affinity for ER is indicated by an RBA of about 0,1% or more. Good affinity binding to ER is indicated by an RBA of about 1%- to about 10%. High affinity binding to ER is indicated by an RBA of about 10% or higher.
MCF-7 cells were plated in 24-well dishes (4 x 10^4 cells/well) and cultured for 48 h. After the incubation the medium was replaced by test compounds diluted in serum free medium containing [^3H]17β-Estradiol ([^3H]E2). Additional wells of each test compound concentration were filled with 500-fold excess of unlabeled E2 for nonspecific binding measurements. After 1 h incubation (37°C) the medium was removed and monolayer washed three times with an ice-cold saline solution. Bond E2 was then extracted from the monolayer with 1 mL ethanol at room temperature (20 min of incubation) and aliquots of 200 µL of ethanolic extracts were transferred to scintillation vials containing 3.8 mL scintillator Ecoscint H (National Diagnostic, Atlanta) for radioactivity counting. All measurements were performed in duplicate. Specific [^3H]E2 incorporation into the cells was calculated from the difference in incorporated radioactivity after incubation in the absence or presence of an excess of unlabeled E2. The results (relative radioactivity) were expressed as a percentage to a solvent treated control sample.

[1] = target: T2, recombinant human estrogen receptor (hERα) (Homo sapiens, UniProt P03372); experiment: Recombinant ERα (HAP Assay): competitive binding against [3H]E2 on hydroxylapatite; conditions: hERα adsorbed on hydroxylapatite; test compound 10^-6 M; overnight at 4°C; percentage to a solvent treated control sample
T2 construct: purchased Calbiochem
T2 sequence (P03372 1-595): T1 sequence (P03372 1-595)
Description: as §3
An ethanolic solution (250 fmol/µL) of recombinant human estrogen receptor (hERα) (Calbiochem) was diluted with Tris-HCl buffer pH 8.0 (1:100). This hERα preparations adsorbed on hydroxylapatite pellets (prepared in 10 mmol/L Tris HCl buffer pH 8.0) which were labeled with increasing concentrations of the test compound (10^-10 - 10^-5 M) and [^3H]E2 (0.1 %) in presence or absence of 200-fold excess of unlabeled E2 and were incubated overnight at 4°C. Bond [^3H]E2 were then successively extracted with ethanol and aliquots of 200 µL of ethanolic extracts were transferred to scintillation vials containing 3.8 mL scintillator Ecoscint H (National Diagnostic, Atlanta) for radioactivity counting. The data interpretation was carried out as shown above.

Row | Relative radioactivity of labeled [^3H]E2; RBA-value MCF-7 cells (WCA); 10^-6 M (estrogen receptor) [%] | Relative radioactivity of labeled [^3H]E2; RBA-value HAP-Assay; 10^-6 M [1] [%] | SMILES | IC50 (MCF-7 cells) [µM] | IC50 (MDA-MB 231 cells) [µM]
1 | – | – | COc1ccc(-c2cc(-c3ccc(OC)cc3)c(-c3ccc(OC)cc3Cl)[nH]2)cc1 [Example 1, 2-(2-Chloro-4-methoxyphenyl)-3,5-bis(4-methoxyphenyl)-1H-pyrrole] | 17.7 | 27.4
2 | – | – | COc1ccc(-c2cc(-c3ccc(OC)cc3Cl)[nH]c2-c2ccc(OC)cc2)cc1 [Example 2, 5-(2-Chloro-4-methoxyphenyl)-2,3-bis(4-methoxyphenyl)-1H-pyrrole] | 9.5 | 10.3
3 | 35.3 ± 4.9 | 26.4 ± 8.3 | Oc1ccc(-c2cc(-c3ccc(O)cc3)c(-c3ccc(O)cc3Cl)[nH]2)cc1 [Example 7, 2-(2-Chloro-4-hydroxyphenyl)-3,5-bis(4-hydroxyphenyl)-1H-pyrrole] | 16.4 | 13.5
4 | 13.1 ± 3.2 | 19.1 ± 1.5 | Oc1ccc(-c2cc(-c3ccc(O)cc3Cl)[nH]c2-c2ccc(O)cc2Cl)cc1 [Example 9, 2,5-Bis(2-chloro-4-hydroxyphenyl)-3-(4-hydroxyphenyl)-1H-pyrrole] | 7.6 | 13.4
5 | – | – | Oc1ccc(-c2cc(-c3ccc(O)cc3)c(-c3ccc(Cl)cc3O)[nH]2)cc1 [Example 10, 2-(4-Chloro-2-hydroxyphenyl)-3,5-bis(4-hydroxyphenyl)-1H-pyrrole] | 9.2 | 18.8
6 | – | – | Oc1ccc(-c2cc(-c3ccc(O)cc3Cl)[nH]c2-c2ccc(Cl)cc2O)cc1 [Example 11, 5-(2-Chloro-4-hydroxyphenyl)-2-(4-chloro-2-hydroxyphenyl)-3-(4-hydroxyphenyl)-1H-pyrrole] | 10.5 | 14
7 | 78.1 ± 4.4 | 70.3 ± 6.1 | CCCc1c(-c2ccc(Cl)cc2O)[nH]c(-c2ccc(O)cc2)c1-c1ccc(O)cc1 [Example 12, 2-(4-Chloro-2-hydroxyphenyl)-4,5-bis(4-hydroxyphenyl)-3-propyl-1H-pyrrole] | 8.1 | 6.5
8 | – | – | COc1ccc(-c2cc(-c3ccc(OC)cc3Cl)c(C)n2-c2ccc(OC)cc2)cc1 [Example 13, 4-(2-Chloro-4-methoxyphenyl)-1,2-bis(4-methoxyphenyl)-5-methyl-1H-pyrrole] | 23.6 | 20.3
9 | – | – | COc1ccc(-c2cc(-c3ccc(OC)cc3Cl)c(CC(C)C)n2-c2ccc(OC)cc2)cc1 [Example 16, 4-(2-Chloro-4-methoxyphenyl)-5-isobutyl-1,2-bis(4-methoxyphenyl)-1H-pyrrole] | 18 | 15.2
10 | – | – | CCCc1c(-c2ccc(OC)cc2F)cc(-c2ccc(OC)cc2)n1-c1ccc(OC)cc1 [Example 17, 4-(2-Fluoro-4-methoxyphenyl)-1,2-bis(4-methoxyphenyl)-5-propyl-1H-pyrrole] | 17.8 | 18.4
11 | – | – | Cc1c(-c2ccc(O)cc2Cl)cc(-c2ccc(O)cc2)n1-c1ccc(O)cc1 [Example 18, 4-(2-Chloro-4-hydroxyphenyl)-1,2-bis(4-hydroxyphenyl)-5-methyl-1H-pyrrole] | 23.4 | 17.4
12 | 41.2 ± 8.3 | 30.1 ± 5.1 | CCc1c(-c2ccc(O)cc2Cl)cc(-c2ccc(O)cc2)n1-c1ccc(O)cc1 [Example 19, 4-(2-Chloro-4-hydroxyphenyl)-5-ethyl-1,2-bis(4-hydroxyphenyl)-1H-pyrrole] | 17.8 | 18.4
13 | – | – | CCCc1c(-c2ccc(O)cc2Cl)cc(-c2ccc(O)cc2)n1-c1ccc(O)cc1 [Example 20, 4-(2-Chloro-4-hydroxyphenyl)-1,2-bis(4-hydroxyphenyl)-5-propyl-1H-pyrrole] | 19.5 | 16.2
14 | – | – | CC(C)Cc1c(-c2ccc(O)cc2Cl)cc(-c2ccc(O)cc2)n1-c1ccc(O)cc1 [Example 21, 4-(2-Chloro-4-hydroxyphenyl)-5-isobutyl-1,2-bis(4-hydroxyphenyl)-1H-pyrrole] | 15.2 | 16.1
